Consider 2 compounds from US20240239763A1, “CRYSTAL FORM OF THIOPHENE DERIVATIVE AND PREPARATION METHOD THEREFOR” (DONGBAO PURPLE STAR (HANGZHOU) BIOPHARMACEUTICAL CO., LTD., priority 2021, published 2024).

The nature of series [1]: Hepatic metabolic stability (HMS) in rat liver cells. To be noted: hepatocytes (liver cells) in suspension, read-out: Hepatic intrinsic clearance rates. Format: in vitro ADME. The protocol:
(§1) To test the metabolic stability of the test compound in human and rat liver cells.
(§2) 2.1 Test Compound (10 mM), controls: 7-Ethoxycoumarin (30 mM), 7-Hydroxycoumarin (control, 30 mM)
(§3) 1) A 30 mM solution was prepared by dissolving a precise amount of the positive control compound in dimethyl sulfoxide (DMSO).
(§4) 2) In a 96-well plate, the 10 mM test compound and 30 mM positive control compound were diluted to 1 mM and 3 mM, respectively, using DMSO.
(§5) 3) Acetonitrile was used to further dilute the 1 mM test compound and 3 mM positive control compound to quantification solutions with final concentrations of 100 μM and 300 μM, respectively.
(§6) 4) The stored cells were thawed, separated, and suspended in culture mediums. These cells were then diluted to a concentration of 0.5×10^6 cells/mL using pre-warmed culture mediums.
(§7) 5) In the 96-well plate, 198 μL of the pre-warmed cell suspension was added. […]
(§8) Through the following formula, the residual rates for the test compound and the control compound were calculated.
(§9) The elimination rate constant k for the test compound and control compound in hepatocytes was calculated by plotting the logarithm of the residual rate against time. The half-life (T1/2) and intrinsic clearance rate (CLint) were determined based on the elimination rate constant k. […]

In series [2] the target is CYP3A4-M (Homo sapiens (Human), UniProt P08684). Nature of the series: Cytochrome P450 isoenzyme inhibition, human liver microsomes. The class given is in vitro ADME. The following applies: read-out: Cytochrome P450 isoenzymes IC50, CYP3A4-M. The procedure: (§10) To determine the inhibitory activity of the test compound against different subtypes of human cytochrome P450 isoenzymes. Test compounds, standard inhibitors (at 100× final concentration), and mixed substrate working solutions were prepared; the microsomes (purchased from Corning Inc.) stored at −80° C. were taken out and thawed. To the corresponding wells were added 20 μL of the test compound and standard inhibitor solutions. Meanwhile, 20 μL of the respective solvent was added to the No Inhibitor Control (NIC) and blank control wells. Next, 20 μL of mixed substrate solution was added to the corresponding wells, except the blank wells where 20 μL of phosphate buffer (PB) was added. A human liver microsome solution was prepared (immediately returned to the fridge after the date of use was marked). Then, 158 μL of this solution was added to all the wells. The sample plate was placed in a 37° C. water bath for pre-incubation. A co-enzyme factor (NADPH) solution was then promptly prepared. After 10 minutes, 20 μL of NADPH solution was added to all wells. The sample plate was shaken to mix and placed back into a 37° C. water bath for an additional 10 minutes of incubation. At the respective time points, the reaction was terminated by adding 400 μL of cold acetonitrile solution (internal standard at 200 ng/ml of tolbutamide and labetalol). The sample plate was mixed thoroughly and was then centrifuged at 4000 rpm for 20 minutes to precipitate proteins. 200 μL of the supernatant was taken and mixed with 100 μL of water, after which it was sent for LC/MS/MS analysis.

Series [3] addresses CYP2D6 (Homo sapiens (Human), UniProt P10635). The description is as above. Format: in vitro ADME. To be noted: read-out: Cytochrome P450 isoenzymes IC50, CYP2D6. The protocol: as §10
In series [4] the target is CYP2C19 (Homo sapiens (Human), UniProt P33261). The series is described as above. To be noted: read-out: Cytochrome P450 isoenzymes IC50, CYP2C19. The class given is in vitro ADME. The procedure:
as §10

In series [5] the target is CYP2C9 (Homo sapiens (Human), UniProt P11712). The series is described as above. The class given is in vitro ADME. To be noted: read-out: Cytochrome P450 isoenzymes IC50, CYP2C9. The protocol: as §10
Series [6] can be described thus: Solid-state stability test of crystal form C. Format: physicochemical. To be noted: for Content / purity: crystal form C. The procedure:
They were separately placed under stability conditions of high temperature (60° C.), high humidity (25° C./92.5% humidity), combined high temperature and high humidity (40° C./75% humidity), and light exposure. For the sample placed under high temperature and high humidity, the bottle was sealed with aluminum foil, with small holes punctured in the aluminum foil to ensure that the samples could fully contact the ambient air; the sample placed under strong light exposure was sealed with a quartz glass cap. […] The samples placed under combined high temperature and high humidity (40° C./75% humidity) were taken for testing in the 1st, 2nd, and 3rd months (appearance, related substances, and content). The samples placed under light exposure conditions were taken for testing when the total illuminance reached 1.2×10^6 Lux•hr.

The nature of series [7]: Hepatic metabolic stability (HMS) in human liver cells. The following applies: hepatocytes (liver cells) in suspension, read-out: Hepatic intrinsic clearance rates. Format: in vitro ADME. The protocol: as §1, §2, §3, §4, §5, §6, §7, §8, §9
For series [8], the system named is P-gp (human MDR1). Kind of series: MDR1 membrane permeability test (bidirectional). To be noted: dog, MDR1-MDCK II. The class given is in vitro ADME, canine. The protocol: MDR1-MDCK II cells are Madin-Darby canine kidney cells transfected with the human MDR1 gene, enabling stable high expression of P-gp. The purpose of the present study is to test the bidirectional permeability of the compound across the MDR1-MDCK II cell model and evaluate its potential for efflux transport.
MDR1-MDCK II cells (sourced from Piet Borst at the Netherlands Cancer Institute) were seeded on polyethylene terephthalate (PET) membranes in a 96-well insert system at a density of 2.5×10^5 cells/mL. The cells were cultured until they formed a confluent monolayer over 4-7 days.
Test compounds were diluted in transport buffer (HBSS containing 10 mM Hepes with DMSO, pH 7.4) to a concentration of 2 μM (DMSO<1%) and were applied to either the apical or basolateral side of the cell monolayer. […] Additionally, efflux ratios for each compound were measured, and both test and reference compounds were quantified, based on the peak area ratio of the analyte to IS by LC/MS/MS analysis. After the transport assay, the integrity of the cell monolayer was determined using a Lucifer Yellow exclusion assay. […] The relative fluorescence units (RFU) of […] were measured at 425/528 nm (excitation/emission) using an Envision microplate reader.
The apparent permeability coefficient (Papp, cm/s), efflux ratio, and recovery rate were calculated using the following formulas: […]

A short description of series [9]: Pharmacokinetics in SD rats in vivo. To be noted: male, Sprague-Dawley, rat, plasma. The procedure:
To test the pharmacokinetics of the compound in SD rats in vivo
Sprague Dawley rats (male, 180-350 g, 6 to 10 weeks of age, Beijing Vital River).
The solution was then filtered through a micropore membrane for later use. […] Six male SD rats were divided into two groups. […] In the second group, animals received a single oral gavage dose of the test compound at 10 mg/kg. […] Whole blood was centrifuged at 3200 g for 10 minutes at 4° C. to obtain plasma. The concentrations of the compound and uric acid (in the oral gavage group only) in the plasma were measured using the LC/MS/MS method. Pharmacokinetic parameters such as peak concentration, time to reach peak concentration, clearance rate, half-life, area under the curve, and bioavailability were calculated using Phoenix WinNonlin software.

Series [10] in a line: Hygroscopicity study by dynamic vapor sorption (DVS). The class given is physicochemical. To be noted: 25° C. and 80% RH. The procedure:
Instrument model: Intrinsic dynamic vapor sorption analyzer Test conditions: A sample (10 to 30 mg) is taken and placed in a DVS sample tray for testing.
Detailed parameters for DVS are as follows:
Equilibrium: dm/dt=0.002%/min (minimum: 10 minutes, maximum: 180 minutes)
RH (%) test increment range: 0% to 95% to 0%
DVS Intrinsic dynamic vapor sorption analyzer
in a DVS sample tray for testing.

The mark [11] stands for this setting: 40° C., relative humidity of 75%, open-top, 1M.
Where [12] appears, read: 40° C., relative humidity of 75%, open-top, 2M.
Where [13] appears, read: 40° C., relative humidity of 75%, open-top, 3M.
The mark [14] stands for this setting: High humidity (25° C./relative humidity of 92.5%, open-top), 5 days.
The mark [15] stands for this setting: High humidity (25° C./relative humidity of 92.5%, open-top), 10 days.
[16] abbreviates: High humidity (25° C./relative humidity of 92.5%, open-top), 30 days.
Where [17] appears, read: High temperature (60° C., open-top), 5 days.
Where [18] appears, read: High temperature (60° C., open-top), 10 days.
Where [19] appears, read: High temperature (60° C., open-top), 30 days.
Setting [20] is: Light exposure (total illuminance: 1.2 × 10^6 Lux · hr/near ultraviolet: 200 w · hr/m^2), 5 days.
Where [21] appears, read: Light exposure (total illuminance: 1.2 × 10^6 Lux · hr/near ultraviolet: 200 w · hr/m^2), 10 days.
Where [22] appears, read: 2.89 mg/kg, 2.89 mpk/intravenous injection.

Sequence of CYP2C9 (P11712 whole entry): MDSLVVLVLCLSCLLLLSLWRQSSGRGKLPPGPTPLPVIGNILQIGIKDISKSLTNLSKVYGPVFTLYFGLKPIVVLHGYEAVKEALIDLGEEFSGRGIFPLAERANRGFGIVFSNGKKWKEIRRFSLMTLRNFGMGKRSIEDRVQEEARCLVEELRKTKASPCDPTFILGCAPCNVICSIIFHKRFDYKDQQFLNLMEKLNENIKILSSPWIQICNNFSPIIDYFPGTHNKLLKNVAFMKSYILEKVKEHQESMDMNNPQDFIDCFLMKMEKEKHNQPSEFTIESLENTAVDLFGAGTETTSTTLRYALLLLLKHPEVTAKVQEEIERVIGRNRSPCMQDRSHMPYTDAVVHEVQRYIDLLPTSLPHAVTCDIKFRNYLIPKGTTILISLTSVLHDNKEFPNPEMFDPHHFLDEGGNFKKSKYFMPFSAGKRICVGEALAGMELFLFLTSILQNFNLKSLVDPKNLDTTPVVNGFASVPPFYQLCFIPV
Sequence of CYP2D6 (P10635 whole entry): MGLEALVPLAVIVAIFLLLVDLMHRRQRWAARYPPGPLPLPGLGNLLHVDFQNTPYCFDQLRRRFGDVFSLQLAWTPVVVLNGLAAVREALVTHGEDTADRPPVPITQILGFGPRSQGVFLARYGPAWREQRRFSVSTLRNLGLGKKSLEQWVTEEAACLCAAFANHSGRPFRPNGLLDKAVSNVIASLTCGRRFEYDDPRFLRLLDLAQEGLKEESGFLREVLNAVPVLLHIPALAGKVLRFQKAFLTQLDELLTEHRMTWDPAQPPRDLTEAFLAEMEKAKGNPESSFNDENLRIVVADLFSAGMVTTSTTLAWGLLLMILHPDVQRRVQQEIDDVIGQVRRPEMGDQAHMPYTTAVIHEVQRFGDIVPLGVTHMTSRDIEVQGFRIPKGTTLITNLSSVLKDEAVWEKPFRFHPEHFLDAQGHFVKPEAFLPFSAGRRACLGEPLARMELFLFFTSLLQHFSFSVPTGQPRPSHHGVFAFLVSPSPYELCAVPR
Sequence of CYP3A4-M (P08684 whole entry): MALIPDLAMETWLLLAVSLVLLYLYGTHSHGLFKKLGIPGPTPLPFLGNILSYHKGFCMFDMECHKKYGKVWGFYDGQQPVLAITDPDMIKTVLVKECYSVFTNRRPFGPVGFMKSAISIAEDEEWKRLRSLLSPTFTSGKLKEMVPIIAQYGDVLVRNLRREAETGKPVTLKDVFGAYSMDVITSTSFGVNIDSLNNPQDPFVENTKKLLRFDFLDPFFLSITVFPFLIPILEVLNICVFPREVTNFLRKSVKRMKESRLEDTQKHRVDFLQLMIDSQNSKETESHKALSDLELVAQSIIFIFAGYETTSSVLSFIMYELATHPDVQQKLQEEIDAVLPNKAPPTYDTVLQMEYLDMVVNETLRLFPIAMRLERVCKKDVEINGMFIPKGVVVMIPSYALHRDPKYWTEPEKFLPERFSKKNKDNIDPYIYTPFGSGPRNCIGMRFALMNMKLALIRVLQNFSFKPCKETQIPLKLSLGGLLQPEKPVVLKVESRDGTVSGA
Sequence of CYP2C19 (P33261 whole entry): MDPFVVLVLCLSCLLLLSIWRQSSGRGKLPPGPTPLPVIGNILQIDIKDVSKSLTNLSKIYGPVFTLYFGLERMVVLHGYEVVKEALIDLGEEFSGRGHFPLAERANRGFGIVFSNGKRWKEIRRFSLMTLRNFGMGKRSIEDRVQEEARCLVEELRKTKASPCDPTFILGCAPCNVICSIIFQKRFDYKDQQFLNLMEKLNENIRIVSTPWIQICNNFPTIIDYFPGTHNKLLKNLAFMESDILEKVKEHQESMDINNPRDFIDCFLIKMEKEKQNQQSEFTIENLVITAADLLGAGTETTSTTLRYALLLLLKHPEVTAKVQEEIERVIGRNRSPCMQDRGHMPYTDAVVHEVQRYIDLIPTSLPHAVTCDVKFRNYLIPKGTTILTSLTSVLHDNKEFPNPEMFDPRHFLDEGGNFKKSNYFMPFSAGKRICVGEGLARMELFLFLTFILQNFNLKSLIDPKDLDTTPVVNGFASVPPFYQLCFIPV

On to `N#Cc1sc(-c2ccc(C(=O)O)c(O)c2)c2c1CCC(F)(F)C2` [Compound of formula (I)], for which the results for the CLint scaled at 1 µM in [1] and in [7] were 188 mL/min/kg and 31.8 mL/min/kg, respectively. For the same compound, the IC50 – broadly, the midpoint of a concentration-inhibition curve – is more than 50 µM in series [2], more than 50 µM in [3], more than 50 µM in [4] and 18.1 µM in [5]. Also, the Content is 98.1% in [6] (0 days (initial)); 97.8% in [6] (setting [11]); 97.8% in series [6] (setting [12]); 97.8% in series [6] (setting [13]); 97.9% in series [6] (setting [14]); 97.9% in [6] (setting [15]). Besides, the Content in [6] (setting [16]) is given as 97.9%; in series [6] (setting [17]) it was 98.5%; in [6] (setting [18]), 98.3%; in [6] (setting [19]) it was 98.1%; in series [6] (setting [20]), 97.6%; in [6] (setting [21]) it was 98.0%. Also, the purity in [6] (0 days (initial)) is recorded as 98.84%; in [6] (setting [11]), 98.83%; in [6] (setting [12]), 99.02%; in series [6] (setting [13]) it was 98.86%; in series [6] (setting [14]), 98.90%; in [6] (setting [15]), 98.90%. The purity is 98.80% in series [6] (setting [16]); 98.94% in [6] (setting [17]); 98.95% in [6] (setting [18]); 98.87% in [6] (setting [19]); 98.89% in series [6] (setting [20]); 98.91% in series [6] (setting [21]). Besides, the Papp A→B – broadly, the apparent permeability from the apical to the basolateral side of a cell layer – at […], 2 µM in series [8] (pH 7.4, A-to-B) was 26.4 ×10⁻⁶ cm/s. Moreover, in [8] (pH 7.4, B-to-A), the basolateral-to-apical permeability (Papp B→A) (in general, the apparent permeability from the basolateral to the apical side of a cell layer) at […], 2 µM was 6.63 ×10⁻⁶ cm/s. Also, the total exposure AUC(0-inf) (as a rule, the area under the concentration-time curve extrapolated to infinity) in series [9] (setting [22]) worked out at 41.8 µM·h; in [9] (8.58 mg/kg, 8.58 mpk/oral) it was 86.6 µM·h. For the same compound, the C0 in series [9] (setting [22]) turned out to be 96.6 µM. For the same compound, in [9] (setting [22]), the clearance – broadly, the rate of elimination divided by the concentration – came to 3.59 mL/min/kg. In addition, in series [9] (2.89 mg/kg, 2.89 mpk/intravenous injection, read-out: Vdss), the Vd stood at 0.32 L/kg. The Cmax (as a rule, the peak of the concentration-time curve) in series [9] (8.58 mg/kg, 8.58 mpk/oral) amounted to 27.5 µM. In addition, the Tmax (in general, the time from dosing to the highest level) in series [9] (8.58 mg/kg, 8.58 mpk/oral) is 0.5 h. Besides, the bioavailability (in general, the share of a dose that reaches the circulation, judged against a reference dose that is usually intravenous) in series [9] (8.58 mg/kg, 8.58 mpk/oral) came to 62.1%. Moreover, the half-life (as a rule, how long it takes for the measured level to halve) in series [9] (8.58 mg/kg, 8.58 mpk/oral) is 2.47 h.

Consider `N#Cc1sc(-c2ccc(C(=O)O)c(O)c2)c2c1CCC(F)(F)C2` [crystal form C], for which, in series [10], the hygroscopicity classification entry is “no hygroscopicity” and the “ΔW (hygroscopic weight gain)” value is 0.196%. Besides, in series [6] (high temperature, high humidity, strong light exposure, and accelerated conditions), the “solid-state stability (in words)” value is given as “good stability”.
